Literature values, collected in patent US10350179B2, “Combination comprising palmitoylethanolamide (PEA) and lycopene for use in the treatment of inflammatory diseases” (Raffaele MIGLIACCIO, priority 2015, dated 2019).

Conditions: dietary intake, background statement

SMILES: CC(C)=CCC/C(C)=C/C=C/C(C)=C/C=C/C(C)=C/C=C/C=C(C)/C=C/C=C(C)/C=C/C=C(\C)CCC=C(C)C [Lycopene]
- Concentration in human plasma: 220 to 1060 nM
